# Article PMC7895558, “Antiprotozoal Compounds from Urolepis hecatantha (Asteraceae)” (Evidence-based Complementary and Alternative Medicine : eCAM, 2021)
# Values joined by “and” are separate entries in the source; they are usually repeats but may differ in a detail not shown here. Equal values may be shown once. Read-outs that look alike come from different tables or passages of the source.
# What was measured:
# [1] = tested on: L6-cell line from rat-skeletal myoblasts; parameters: method as in PMID 29244495; details: read-out: CC50 on L6 cells; cited from earlier work
# cytotoxicity assay (MTT) = type: cell-based; details: mouse
# Procedure: The cytotoxicity of the dewaxed dichloromethane extract of U. hecatantha and the isolated compounds was evaluated according to the method described by Aguilera et al., 2019 [15]. The J774.1 murine macrophages (ATCC, USA) were grown in a DMEM culture medium containing 4 mM L-glutamine and supplemented with 10% FCS. Cells were seeded in a 96-well plate (5.00 × 10^4 cells in 200 µL culture medium) and incubated at 37°C in a 5% CO2 atmosphere for 48 h, to allow cell adhesion before drug testing. Afterwards, cells were exposed for 48 h to the compounds (25–400 µM) or the vehicle for control (medium with 0.4% DMSO v/v), and additional control (cells in medium) were used in each test. Cell viability was then assessed by measuring the mitochondria-dependent reduction of MTT [3-(4,5-dimethylthiazol-2-yl)-2,5-diphenyltetrazolium bromide] to formazan. For this purpose, MTT in sterile PBS (containing 0.2% glucose), pH 7.4, was added to the macrophages to achieve a final concentration of 0.1 mg/mL, and the cells were incubated at 37°C for 3 h. After removing the medium, formazan crystals were dissolved in 180 µL of DMSO and 20 µL of MTT buffer (0.1 M glycine, 0.1 M NaCl, 0.5 mM EDTA, pH 10.5), and the absorbance at 560 nm was measured. The CC50 was defined as the drug concentration at which 50% of the cells were viable, relative to the control (no drug added), and was determined using OriginLab 8.5® sigmoidal regression (% of viable cells compared to the logarithm of the compound concentration). Tests were performed in triplicate.
# [2] = tested on: Leishmania infantum promastigotes; test: anti-Leishmania activity (promastigotes, resazurin); type: cell-based; details: 48 h, read-out: IC50 on L. infantum promastigotes
# Procedure: (§1) For the anti-Trypanosoma and anti-Leishmania activity assays, we followed the methods described by Aguilera et al., 2019 [15].
# Leishmania infantum (MHOM/BR/2002/LPC-RPV) was obtained from Fiocruz (Collection of Oswaldo Cruz Foundation, Rio de Janeiro, Brazil). Promastigotes were cultured as described with some modifications at 28°C in an axenic medium (BHI-Tryptose supplemented with: FBS 10%, hemine 2 × 10^−5 mg/mL, glucose 3.0 × 10^−4 g/mL, streptomycin 2.0 × 10^−4 g/mL, ampicillin 1.3 × 10^−4 g/mL) as a low-cost alternative for Leishmania spp. culture. Assays were performed in 96-well plastic plates using 2 × 10^6 promastigotes per well. Compounds were dissolved in DMSO. Different serial dilutions (25–0.05 µM) of the compounds with a final volume up to 200 µL were added. After 48 h at 28°C, 20 µL of a 2 mM resazurin solution was added, and the oxidation-reduction was quantified at 570 and 600 nm. The resazurin solution was prepared at 2.5 mM in phosphate-buffered solution (PBS), pH 7.4, and filtered through 0.22 µm before use. Resazurin sodium salt was obtained from Sigma-Aldrich (St. Louis, MO, USA) and stored at 4°C protected from light. Glucantime was used as a positive control. The efficacy of each compound was estimated by calculating the IC50 values using OriginLab 8.5® sigmoidal regression. Each antiproliferative experiment was done in duplicate, and each concentration was tested in triplicate.
# [3] = tested on: Trypanosoma brucei rhodesiense trypomastigotes; details: cited from earlier work
# [4] = tested on: Trypanosoma cruzi epimastigotes (Tulahuen 2 strain); test: in vitro anti-Trypanosoma cruzi activity (epimastigote growth, absorbance 600 nm); type: cell-based; details: for IC50: Trypanosoma cruzi, TULAHUEN, 120 h, read-out: IC50 on T. cruzi epimastigotes
# Procedure: as §1
# For the in vitro anti-Trypanosoma cruzi activity, epimastigotes of the Tulahuen 2 strain (genotype TcVI) grown in an axenic medium (BHI-Tryptose) were used. Cells from a 5–7-day-old culture were inoculated in a fresh culture medium to give an initial concentration of 10^6 cells/mL. The absorbance at 600 nm of the cells in culture was measured every day. On day five, the medium was inoculated with different doses of the compounds (25–0.05 µM) from a stock solution in dimethylsulfoxide (DMSO) (DMSO concentration in the culture medium never exceeded 0.4%). Control parasites were cultivated in medium with 0.4% DMSO v/v. Benznidazole was used as a positive control. At five days, the absorbance of the culture was measured and compared to the control and the IC50 values were calculated for each compound using OriginLab 8.5® sigmoidal regression. Each experiment was done in duplicate, and each concentration was tested in triplicate.
# [5] = Leishmania infantum, promastigotes
Compound,"IC50 [2, 5]","IC50 ([4]; epimastigotes, 5 days)",CC50 at 48 h (cytotoxicity assay (MTT); J774.1 murine macrophages) [µM],other results
"C=C1C(=O)O[C@@H]2/C=C(/C)[C@@H](OC(C)=O)C/C=C(\C)C[C@@H](OC(=O)/C(=C/CO)CO)[C@@H]12 [compound 4, eucannabinolide]",> 25 µM,10 µM and 4.2 µg/mL,,"CC50 [1]: 7.8 ± 0.8 µM; CC50 (cytotoxicity assay (MTT); murine macrophages, 48 h): 15 µM; IC50 ([3]; loaded onto polylactic acid nanoparticles, target not restated in the sentence, read-out: free drug equivalent IC50): 3.32 µM; IC50 ([3]; read-out: IC50 against Trypanosoma brucei rhodesiense trypomastigotes): 1.1 ± 0.1 µM; selectivity index (SI) on T. cruzi ([4]; macrophage CC50 versus T. cruzi epimastigote IC50): 1.5"
"O=C(Cn1ccnc1[N+](=O)[O-])NCc1ccccc1 [benznidazole, reference compound]",,7 ± 2 µM,,
"C=C1C(=O)O[C@@H]2/C=C(\C)[C@@H](O)C/C=C(\C)C[C@@H](OC(=O)/C(=C/CO)COC(C)=O)[C@@H]12 [compound 3, santhemoidin C]",19 µM and 8 µg/mL,18 µM and 7.6 µg/mL,> 15,
Glucantime [reference compound],,,,IC50 ([2]; promastigotes): 26 ± 9 µM
"C=C(C)c1cc2cc(C(C)=O)c(O)cc2o1 [compound 1, euparin]",,,,CC50 at 48 h (cytotoxicity assay (MTT); murine macrophages): > 25 µM; IC50 ([2]; Leishmania infantum): 18 µM and 3.9 µg/mL; IC50 [4]: > 25 µM
"COc1cc(-c2oc3cc(O)c(OC)c(O)c3c(=O)c2OC)ccc1O [compound 2, jaceidin]",> 25 µM,> 25 µM,> 25,
